Columns and labels:
hERG channel = target: T1, hERG channel (Homo sapiens, UniProt Q12809); assay: hERG potassium ion channel automated planar clamp (QPatch) in stable CHO cell line; type: cell-based; conditions: Formic Acid Salt (37: HCl Salt), read-out: hERG channel blockade Mean IC50
T1 construct: expressed in transfected cells
Protocol: Blockade of the cardiac ion channel coded by the hERG gene can lead to cardiac arrhythmia. […] To determine the viability of the compounds disclosed herein as pharmacological agents that would not affect the hERG channel blockade, a standard automated planar clamp method was employed to determine the IC50 for various test compounds on their inhibition of the channel. An electrophysiological assay was prepared to measure the electric current passing through the hERG channel expressed in a stable CHO cell line by applying the planar clamp method. This assay was performed using the automated QPatch platform (Sophion, Denmark) which allows fast and accurate electrophysiological characterization of the hERG ion channel and the determination of IC50 values for the test compounds, as shown in Table 9.

IRE1a [1] = target: T2, IRE1a (Homo sapiens, UniProt O75460); assay: In vitro FRET assay (IRE1a cleavage of XBP1 RNA probe); type: biochemical; conditions: 2 nM SignalChem IRE1a, tested as Formic Acid Salt (37: HCl Salt)
T2 construct: purchased SignalChem
Method in brief: Human

IRE1a [2] = assay: IRE1a Endoribonuclease Nanoluciferase Assay (XBP1 luciferase reporter in 293T cells); type: cell-based, human; conditions: Homo sapiens, HEK-293T, ER stressor, tested as Formic Acid Salt (37: HCl Salt)
Method in brief: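 293T cells transiently transfected with a PGK-Luc2-P2A-XBP1u-Nanoluciferase-Pest reporter, replated after 6 h, then treated next day with ER stressors ± inhibitors. After lysis, firefly luminescence then nanoluciferase luminescence read sequentially (1000 ms integration each).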

293T cells = assay: Growth assay (cytotoxicity); type: cell-based, human; conditions: Formic Acid Salt (37: HCl Salt); for viability at 0.185 µM / viability at 0.5556 µM / viability at 1.667 µM / viability at 5 µM: Homo sapiens, HEK-293T
Protocol: A growth assay was performed to evaluate the compounds disclosed herein for cytotoxicity. Briefly, 5,000,000 293T cells were resuspended in 18 mL of cDMEM for a final concentration of […]. […] In a separate 96 well dilution plate, 199 uL cDMEM and 1 uL of DMSO or any one of the compounds disclosed herein (shown as Test Compound 1, 2, 3, 4, 5, or 6 below) were added to wells A4, A8, C4, C8, E4, E8, G4, and G8, 133.3 uL cDMEM was added to wells 1, 2, 3, 5, 6, and 7 in rows A, C, E and G of the dilution plate. Compounds were serially diluted leftwards in threefold dilutions (66.7 uL into 133.3 uL cDMEM). 20 uL of each dilution was transferred in duplicate (duplicates in vertical paired wells) to the cells plated in the 96-well plate shown in Table 5, to the total concentrations shown below. 200 uL cDMEM was addled to media wells (wells G5-H8). The plate was then placed in a humidified chamber for a […], and then photographed (media was more yellow in wells with potent cell growth). Absorbance was then measured at ˜[…] (lower for more acidic media) and ˜450 nM (higher for more acidic media).

in vivo = conditions: mouse, po, 30 mg/kg

T1 sequence (Q12809 whole entry): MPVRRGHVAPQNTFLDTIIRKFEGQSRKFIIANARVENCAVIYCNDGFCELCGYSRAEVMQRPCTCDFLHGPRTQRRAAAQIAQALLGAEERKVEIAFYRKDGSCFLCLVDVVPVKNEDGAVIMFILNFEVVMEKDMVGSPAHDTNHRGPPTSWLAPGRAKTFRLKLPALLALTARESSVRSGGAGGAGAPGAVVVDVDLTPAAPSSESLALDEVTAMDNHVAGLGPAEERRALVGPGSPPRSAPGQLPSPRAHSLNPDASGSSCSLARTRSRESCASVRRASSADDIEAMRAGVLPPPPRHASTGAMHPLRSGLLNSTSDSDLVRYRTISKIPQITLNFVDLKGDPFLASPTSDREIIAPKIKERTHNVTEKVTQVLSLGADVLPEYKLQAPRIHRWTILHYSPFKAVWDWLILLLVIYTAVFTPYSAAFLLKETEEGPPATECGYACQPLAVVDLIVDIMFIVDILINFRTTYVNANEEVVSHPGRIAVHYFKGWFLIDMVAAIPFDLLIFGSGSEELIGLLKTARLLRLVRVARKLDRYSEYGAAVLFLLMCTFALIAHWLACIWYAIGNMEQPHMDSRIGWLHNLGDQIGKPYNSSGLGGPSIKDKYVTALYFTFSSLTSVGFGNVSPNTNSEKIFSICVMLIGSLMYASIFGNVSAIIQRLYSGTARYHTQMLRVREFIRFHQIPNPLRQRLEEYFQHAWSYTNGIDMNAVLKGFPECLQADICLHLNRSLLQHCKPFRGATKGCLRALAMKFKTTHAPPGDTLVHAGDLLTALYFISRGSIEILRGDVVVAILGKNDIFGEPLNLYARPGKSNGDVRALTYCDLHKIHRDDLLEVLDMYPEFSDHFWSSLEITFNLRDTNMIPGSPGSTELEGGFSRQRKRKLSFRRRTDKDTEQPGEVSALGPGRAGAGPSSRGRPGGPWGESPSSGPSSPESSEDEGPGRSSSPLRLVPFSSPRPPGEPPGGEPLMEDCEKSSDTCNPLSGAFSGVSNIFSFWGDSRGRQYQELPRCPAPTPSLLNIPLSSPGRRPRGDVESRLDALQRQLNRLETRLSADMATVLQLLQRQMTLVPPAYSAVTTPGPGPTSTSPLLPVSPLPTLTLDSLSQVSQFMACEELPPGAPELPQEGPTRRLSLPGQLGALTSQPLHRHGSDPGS
T2 sequence (O75460 19-977): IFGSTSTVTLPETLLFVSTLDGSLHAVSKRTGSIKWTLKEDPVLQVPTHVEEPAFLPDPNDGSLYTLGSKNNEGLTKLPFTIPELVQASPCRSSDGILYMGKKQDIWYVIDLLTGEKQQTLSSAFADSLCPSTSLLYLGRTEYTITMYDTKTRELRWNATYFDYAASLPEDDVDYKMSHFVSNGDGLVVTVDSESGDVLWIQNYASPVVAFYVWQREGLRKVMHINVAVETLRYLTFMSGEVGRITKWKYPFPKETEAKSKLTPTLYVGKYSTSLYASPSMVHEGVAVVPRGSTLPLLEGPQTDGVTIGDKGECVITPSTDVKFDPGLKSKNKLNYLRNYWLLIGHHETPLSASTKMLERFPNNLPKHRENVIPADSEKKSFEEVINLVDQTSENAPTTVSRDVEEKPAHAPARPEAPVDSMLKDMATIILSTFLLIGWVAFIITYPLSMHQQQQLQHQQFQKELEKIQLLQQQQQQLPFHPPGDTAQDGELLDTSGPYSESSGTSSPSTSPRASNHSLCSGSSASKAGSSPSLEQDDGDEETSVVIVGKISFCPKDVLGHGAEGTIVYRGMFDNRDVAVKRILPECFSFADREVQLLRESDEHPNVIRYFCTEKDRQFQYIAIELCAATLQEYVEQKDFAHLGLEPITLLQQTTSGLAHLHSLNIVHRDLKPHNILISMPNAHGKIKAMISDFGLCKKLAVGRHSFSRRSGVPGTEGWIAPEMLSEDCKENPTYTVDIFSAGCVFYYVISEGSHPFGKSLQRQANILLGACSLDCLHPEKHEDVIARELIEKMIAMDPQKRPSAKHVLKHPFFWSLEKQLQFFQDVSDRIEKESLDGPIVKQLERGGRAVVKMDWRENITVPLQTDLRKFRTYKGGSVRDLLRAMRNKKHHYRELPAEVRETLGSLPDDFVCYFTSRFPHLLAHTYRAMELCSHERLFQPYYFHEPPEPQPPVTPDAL

Row | Structure (SMILES) | IC50 (IRE1a [1]) | EC50 (IRE1a [2]) | IC50 (hERG channel) | viability at 0.185 µM (293T cells) | viability at 0.5556 µM (293T cells; 0.5556 uM) | viability at 1.667 µM (293T cells; 1.667 uM) | viability at 5 µM (293T cells; 5 uM) | bioavailability (in vivo) | % Growth at 0.5556 uM (293T cells; 0.5556 uM) | % Growth at 1.667 uM (293T cells; 1.667 uM) | % Growth at 5 uM (293T cells; 5 uM)
1 | CCc1cc(-c2ccc(NS(=O)(=O)c3ccccc3Cl)c(F)c2)cc2cnc(N[C@H]3CC[C@H](N)CC3)nc12 [Compound 24, N-(4-(2-(((1r,4r)-4-aminocyclohexyl)amino)-8-ethylquinazolin-6-yl)-2-fluorophenyl)-2-chlorobenzene-sulfonamide] | ≤ 5 nM | ≤ 5 nM | 1000 to 10000 nM | 75 to 100% | 75 to 100% | 50 to 75% | 50 to 75% |  |  |  | 
2 | CCc1cc(-c2ccc(NS(=O)(=O)c3ccccc3Cl)nn2)cc2cnc(N[C@H]3CC[C@H](N)CC3)nc12 [Compound 32, N-(6-(2-(((1r,4r)-4-aminocyclohexyl)amino)-8-ethylquinazolin-6-yl)pyridazin-3-yl)-2-chlorobenzene-sulfonamide] | ≤ 5 nM | ≤ 5 nM |  | 75 to 100% | 75 to 100% | 50 to 75% | 25 to 50% |  |  |  | 
3 | CCc1cc(-c2ncc(NS(=O)(=O)c3ccccc3Cl)cn2)cc2cnc(N[C@H]3CC[C@H](N)CC3)nc12 [Compound 33] | ≤ 5 nM | ≤ 5 nM |  | 75 to 100% | 75 to 100% | 75 to 100% | 50 to 75% |  |  |  | 
4 | CCc1cc(NS(=O)(=O)c2ccccc2Cl)ccc1-c1cc(CC)c2nc(N[C@H]3CC[C@H](N)CC3)ncc2c1 [Compound 34, N-(4-(2-(((1r,4r)-4-aminocyclohexyl)amino)-8-ethylquinazolin-6-yl)-3-ethylphenyl)-2-chlorobenzene-sulfonamide] | ≤ 5 nM | 5 to 50 nM |  | 75 to 100% | 75 to 100% | 75 to 100% | ≤ 25% |  |  |  | 
5 | CCc1cc(-c2ccc(NS(=O)(=O)c3ccccc3Cl)cc2F)cc2cnc(N[C@H]3CC[C@H](N)CC3)nc12 [Compound 35, N-(4-(2-(((1r,4r)-4-aminocyclohexyl)amino)-8-ethylquinazolin-6-yl)-3-fluorophenyl)-2-chlorobenzene-sulfonamide] | ≤ 5 nM | ≤ 5 nM |  | 75 to 100% | 75 to 100% | 50 to 75% | 25 to 50% |  |  |  | 
6 | CCc1cc(-c2cnc(NS(=O)(=O)c3ccccc3Cl)nc2OC)cc2cnc(N[C@H]3CC[C@H](N)CC3)nc12 [Compound 46, N-(5-(2-(((1r,4r)-4-aminocyclohexyl)amino)-8-ethylquinazolin-6-yl)-4-methoxypyrimidin-2-yl)-2-chlorobenzene-sulfonamide] | ≤ 5 nM | ≤ 5 nM |  | 75 to 100% | 75 to 100% | 75 to 100% | 75 to 100% |  |  |  | 
7 | CCc1cc(-c2nnc(NS(=O)(=O)c3ccccc3Cl)cc2OC)cc2cnc(N[C@H]3CC[C@H](N)CC3)nc12 [Compound 65, N-(6-(2-(((1r,4r)-4-aminocyclohexyl)amino)-8-ethylquinazolin-6-yl)-5-methoxypyridazin-3-yl)-2-chlorobenzene-sulfonamide] | ≤ 5 nM | 5 to 50 nM |  | 75 to 100% | 75 to 100% | 75 to 100% | 50 to 75% |  |  |  | 
8 | CCc1cc(-c2ccc(NS(=O)(=O)c3ccccc3Cl)nc2C)cc2cnc(N[C@H]3CC[C@H](N(C)C)CC3)nc12 [Compound 91, 2-chloro-N-(5-(2-(((1r,4r)-4-(dimethylamino)cyclohexyl)amino)-8-ethylquinazolin-6-yl)-6-methylpyridin-2-yl)benzenesulfonamide] |  | ≤ 5 nM |  |  |  |  |  | 66% |  |  | 

Continued, in another order:

Row | IC50 (IRE1a [1]) | EC50 (IRE1a [2]) | Structure (SMILES) | IC50 (hERG channel) | viability at 0.185 µM (293T cells) | viability at 0.5556 µM (293T cells; 0.5556 uM) | viability at 1.667 µM (293T cells; 1.667 uM) | viability at 5 µM (293T cells; 5 uM) | bioavailability (in vivo) | % Growth at 0.5556 uM (293T cells; 0.5556 uM) | % Growth at 1.667 uM (293T cells; 1.667 uM) | % Growth at 5 uM (293T cells; 5 uM)
9 | ≤ 5 nM | ≤ 5 nM | CCc1cc(-c2ccc(NS(=O)(=O)c3ccccc3Cl)nc2OC)cc2cnc(N[C@H]3CC[C@H](N)CC3)nc12 [Compound 37, N-(5-(2-(((1r,4r)-4-aminocyclohexyl)amino)-8-ethylquinazolin-6-yl)-6-methoxypyridin-2-yl)-2-chlorobenzene-sulfonamide] | 10000 to 50000 nM |  |  |  |  | 17% | D (D: >75% to ≤100%) | C (C: >50% to ≤75%) | B (B: >25% to ≤50%)
10 | ≤ 5 nM | ≤ 5 nM | CCc1cc(-c2ncc(NS(=O)(=O)c3ccccc3Cl)cc2F)cc2cnc(N[C@H]3CC[C@H](N)CC3)nc12 [Compound 52] |  | 75 to 100% | 75 to 100% | 75 to 100% | 50 to 75% |  |  |  | 
11 | ≤ 5 nM | ≤ 5 nM | CCc1cc(-c2cnc(NS(=O)(=O)c3ccccc3Cl)c(F)c2)cc2cnc(N[C@H]3CC[C@H](N)CC3)nc12 [Compound 55, N-(5-(2-(((1r,4r)-4-aminocyclohexyl)amino)-8-ethylquinazolin-6-yl)-3-fluoropyridin-2-yl)-2-chlorobenzene-sulfonamide] |  | 75 to 100% | 75 to 100% | 75 to 100% | 75 to 100% |  |  |  | 
12 | ≤ 5 nM | 5 to 50 nM | CCc1cc(-c2nnc(NS(=O)(=O)c3ccccc3Cl)cc2C)cc2cnc(N[C@H]3CC[C@H](N)CC3)nc12 [Compound 67, N-(6-(2-(((1r,4r)-4-aminocyclohexyl)amino)-8-ethylquinazolin-6-yl)-5-methylpyridazin-3-yl)-2-chlorobenzene-sulfonamide] |  | 75 to 100% | 75 to 100% | 50 to 75% | 50 to 75% |  |  |  | 
13 | ≤ 5 nM | ≤ 5 nM | CCc1cc(-c2ccc(NS(=O)(=O)c3ccccc3Cl)c(F)c2)cc2cnc(N[C@H]3CC[C@H](N(C)C)CC3)nc12 [Compound 69, 2-chloro-N-(4-(2-(((1r,4r)-4-(dimethylamino)cyclohexyl)amino)-8-ethylquinazolin-6-yl)-2-fluorophenyl) benzene-sulfonamide] | 10000 to 50000 nM |  | 75 to 100% | 50 to 75% | 50 to 75% |  |  |  | 
14 | ≤ 5 nM | ≤ 5 nM | CCc1cc(-c2ccc(NS(=O)(=O)c3ccccc3Cl)c(F)c2C)cc2cnc(N[C@H]3CC[C@H](N)CC3)nc12 [Compound 71, N-(4-(2-(((1r,4r)-4-aminocyclohexyl)amino)-8-ethylquinazolin-6-yl)-2-fluoro-3-methylphenyl)-2-chlorobenzene-sulfonamide] |  | 75 to 100% | 75 to 100% | 50 to 75% | 25 to 50% |  |  |  | 

Reference: patent US12071424B2, “IRE1 small molecule inhibitors” (Cornell University, priority 2017, dated 2024)
